Data as given in US12357696B2, “Preserved etherified cyclodextrin derivatives containing liquid aqueous pharmaceutical composition” (Boehringer Ingelheim Vetmedica GmbH, priority 2013, dated 2025).
Blank lines part the entries; values can stand above or below the compound they belong to.

Tests used:
[1] = system: Zygosaccharomyces rouxii, Candida albicans and Aspergillus brasiliensis; test: Efficacy of microbial preservation, Example 4, overall; type: cell-based; details: ascorbic acid 0.20-0.70 g/100 mL with sorbic acid 0.3 g/100 mL, pH 3.5
[2] = system: E. coli, P. aeruginosa, S. aureus, C. albicans, A. brasiliensis; test: Antimicrobial efficacy, Example 3, overall evaluation of Tables 6 and 7; type: cell-based; details: solutions of Table 4
Excerpt: The testing criteria applied are those for evaluation of antimicrobial activity for oral preparations according to Pharm. Eur. 7 (tests at 14 days and 28 days). The acceptance criteria of the Ph. Eur. 7, Method 5.1.3 “Efficacy of Antimicrobial Preservation” USP 34, and Method <51> Antimicrobial Effectiveness Testing are listed in the following Table 2.

[3] = Solubility of pimobendan in cyclodextrin solutions (FIG. 1-3); type: physicochemical
Method: The last row of columns represents the reference control, which is the respective solution without preservative (“none”). […] FIG. 2 is a schematic diagram wherein the solubility of pimobendan is shown as a function of type and concentration of polymer, salt or complexation agent. In order to determine the degree of complexation, the effect of three different polymers, three different salts and one chelating agent on the solubility of pimobendan was tested. The pH of the solution was 4.5. Metolose is hydroxypropyl methylcellulose=HPMC=Hypromellose. Klucel ELF is hydroxypropyl cellulose=HPC. The number after the chemical name indicates the concentration of additive in % (m/V). FIG. 3 is a schematic diagram wherein the solubility of pimobendan is shown as a function of concentration of hydroxypropyl-ß-cyclodextrin and presence of sodium sorbate and hydroxypropyl methylcellulose (HPMC). Therefore, in FIG. 3 the effect of sodium sorbate and HPMC on the solubility of pimobendan was illustrated, and also the effect of concentration of hydroxypropyl-ß-cyclodextrin on the pimobendan solubility. Concentrations of sodium sorbate of 1.0% (m/V) and of HPMC of 0.1% (m/V) were used. The pH value was set to 4.5 using hydrochloric acid in all solutions.

[4] = type: physicochemical
Method: As already described in EP 0 439 030 and WO 2005/08467, pimobendan drug substance is insoluble in water: 1 g drug substance is soluble in more than 10,000 mL. At pH 7 the solubility of pimobendan is only about 0.1 mg per 100 mL.
The solubility of pimobendan in aqueous solutions is depends on the pH. […] However, the local tolerance and palatability as well as the chemical stability of such a formulation are not acceptable. This is due to the fact that the target dose would require a drug concentration in solution which can only be achieved by a pH of about pH 2.5 and lower. […] Accordingly, a pimobendan formulation comprising up to 1.5 mg/mL of pimobendan would need an increase in solubility at pH 7 by a factor of about 1000 to 1500, not achieved in prior art formulations for oral administration up to now.

[5] = cited from earlier work

SMILES: O=C1O[C@H]([C@@H](O)CO)C(O)=C1O [ascorbic acid]
efficacy of preservation versus concentration of antioxidant [1]: increasing efficacy of preservation with increasing concentration of antioxidant

SMILES: C/C=C/C=C/C(=O)O [sorbic acid]
antimicrobial efficacy (overall statement on Tables 6 and 7) [2]: good antimicrobial efficacy

solubility of pimobendan in presence of HPMC (FIG. 3) ([3]; HPMC 0.1% (m/V), hydroxypropyl-ß-cyclodextrin, pH 4.5): significantly increases | solubility of pimobendan on addition of HPMC (FIG. 2) ([3]; pH 4.5): significant increase | solubility of pimobendan on addition of salts or disodium edetate (FIG. 2) ([3]; pH 4.5): does not significantly increase | solubility of pimobendan with both HPMC and sodium sorbate (FIG. 3) ([3]; sodium sorbate 1.0% (m/V) and HPMC 0.1% (m/V), pH 4.5): significantly increased | solubility of pimobendan in presence of sodium sorbate (FIG. 3) ([3]; sodium sorbate 1.0% (m/V), hydroxypropyl-ß-cyclodextrin, pH 4.5): significantly increases
SMILES: COc1ccc(-c2nc3ccc(C4=NNC(=O)CC4C)cc3[nH]2)cc1 (stereo not shown) [pimobendan, 4,5-dihydro-6-[2-(4-methoxyphenyl)-1H-benzimidazol-5-yl]-5-methyl-3(2H)-pyridazinone]
solubility of pimobendan as a function of pH value (FIG. 1) ([3]; 25% (m/V) cyclodextrin, pH 3.5, 4.5, 5.5, 7, 9): highest solubility of pimobendan occurs at pH=3.5 | solubility of pimobendan as a function of preservative (FIG. 1) ([3]; 25% (m/V) cyclodextrin, versus reference control without preservative): highest pimobendan solubility is achieved with sodium sorbate | solubility of pimobendan as a function of cyclodextrin type (FIG. 1) ([3]; 25% (m/V) hydroxypropyl-ß- or hydroxypropyl-gamma-cyclodextrin): more soluble with hydroxypropyl-ß-cyclodextrin than hydroxypropyl-gamma-cyclodextrin | solubility of pimobendan in aqueous solutions depending on pH [4]: significantly higher at pH 1 to 2.5 than at higher pH values | solubility of pimobendan ([5]; pH 7): about 0.1 mg per 100 mL | water in which 1 g drug substance is soluble ([5]; per 1 g drug substance, water): more than 10,000 mL
